Values quoted from earlier work in patent US20060287520A1, “Synthesis of salinosporamide A and analogues thereof” (priority 2005, published 2006).

Key:
20S proteasome = settings: times more potent than omuralide, same molecular target (20S proteasome)
[1] = read-out: in vitro cytotoxicity IC50; background statement; cell line not given

C[C@@]12OC(=O)[C@]1([C@@H](O)[C@@H]1C=CCCC1)NC(=O)[C@@H]2CCCl [Salinosporamide A]
potency relative to omuralide (2) (20S proteasome): approximately 35 times
IC50 [1]: ~10 nM
